Laboratory results taken from patent US12157717B2, “Compounds for the treatment of bovine or swine respiratory disease” (Intervet Inc., priority 2018, dated 2024).
In brackets after ≈: the same amount, converted by molar mass.

What was measured:
Format in all cases: cell-based
[1] = system: Mannheimia haemolytica MH 12587 (1071), macrolide-resistance: erm+, E+; assay: MIC, broth-microdilution (CLSI), strain MH 12587; details: Mannheimia haemolytica 1071, BRD field isolate
Description: (§1) The Minimum inhibitory concentrations (MIC) of compounds according to the invention for a number of veterinary bacterial pathogens were determined by the broth-microdilution method according to CLSI document VETO 1-A4.
(§2) Microdilution trays containing a doubling dilution series of the test compound were used for the tests. The MIC results were interpreted according to the CLSI documents VET01-S3. The lowest concentration of compound at which no visible growth (i.e. no turbidity) detected by the unaided eye was recorded as the MIC.

[2] = system: Pasteurella multocida PM 12080 (IV102277-0093); assay: MIC, broth-microdilution (CLSI), strain PM 12080; details: Pasteurella multocida IV102277-0093, BRD field isolate
Description: as §1, §2

[3] = system: Mannheimia haemolytica MH 13093 (XB0472-6014.1); assay: MIC, broth-microdilution (CLSI), strain MH 13093; details: Mannheimia haemolytica XB0472-6014.1, BRD field isolate
Description: as §1, §2

[4] = system: Mannheimia haemolytica MH 10720 (154); assay: MIC, broth-microdilution (CLSI), strain MH 10720; details: Mannheimia haemolytica 154, BRD field isolate
Description: as §1, §2

[5] = system: Pasteurella multocida PM 10775 (080130003051); assay: MIC, broth-microdilution (CLSI), strain PM 10775; details: Pasteurella multocida 080130003051, BRD field isolate
Description: as §1, §2

[6] = system: Mannheimia haemolytica MH 13065 (XB0446-6003.9); assay: MIC, broth-microdilution (CLSI), strain MH 13065; details: Mannheimia haemolytica XB0446-6003.9, BRD field isolate
Description: as §1, §2

[7] = system: Mannheimia haemolytica MH 6374 (ATCC 33396); assay: MIC, broth-microdilution (CLSI), strain MH 6374; details: Mannheimia haemolytica ATCC 33396, reference strain
Description: as §1, §2

[8] = system: Pasteurella multocida PM 6391 (ATCC 43137); assay: MIC, broth-microdilution (CLSI), strain PM 6391; details: Pasteurella multocida ATCC 43137, reference strain
Description: as §1, §2

[9] = system: Mannheimia haemolytica MH 6357 (M7/2); assay: MIC, broth-microdilution (CLSI), strain MH 6357; details: Mannheimia haemolytica M7/2, reference strain (cattle infection strain)
Description: as §1, §2

[10] = system: Pasteurella multocida PM 6267 (P 2225 (L386)); assay: MIC, broth-microdilution (CLSI), strain PM 6267; details: Pasteurella multocida P 2225 (L386), reference strain (mouse infection strain)
Description: as §1, §2

| SMILES | MIC MH 12587 [1] [µM] | MIC PM 12080 [2] [µM] | MIC MH 13093 [3] [µM] | MIC MH 10720 [4] [µM] | MIC PM 10775 [5] [µM] | MIC MH 13065 [6] [µM] | MIC MH 6374 [7] [µM] | MIC PM 6391 [8] [µM] | MIC MH 6357 [9] [µM] | MIC PM 6267 [10] [µM] |
| --- | --- | --- | --- | --- | --- | --- | --- | --- | --- | --- |
| CNC(=O)C(NC(=O)c1ccc(C#Cc2ccc(CNCc3ccccn3)cc2)cc1)C(=O)NO (centres unmarked) [Compound 13] | 1.6 (≈ 0.754 µg/mL) | ≤0.1 | 0.8 (≈ 0.377 µg/mL) | 0.2 (≈ 0.0943 µg/mL) | ≤0.1 | 1.6 (≈ 0.754 µg/mL) | 0.8 (≈ 0.377 µg/mL) | 0.2 (≈ 0.0943 µg/mL) | 0.8 (≈ 0.377 µg/mL) | ≤0.1 |
| CNC(=O)C(NC(=O)c1ccc(C#Cc2ccc(CNCC3CCCO3)cc2)cc1)C(=O)NO (centres unmarked) [Compound 17] | 12.5 (≈ 5.81 µg/mL) | 0.2 (≈ 0.0929 µg/mL) | 12.5 (≈ 5.81 µg/mL) | 0.8 (≈ 0.372 µg/mL) | ≤0.1 | 3.1 (≈ 1.44 µg/mL) | 6.3 (≈ 2.93 µg/mL) | 0.4 (≈ 0.186 µg/mL) | 3.1 (≈ 1.44 µg/mL) | ≤0.1 |
| CNC(=O)C(C(=O)NO)N(C)C(=O)c1ccc(C#Cc2ccc(CN3CCOCC3)cc2)cc1 (centres unmarked) [Compound 22] | 6.3 (≈ 2.93 µg/mL) | 0.4 (≈ 0.186 µg/mL) | 3.1 (≈ 1.44 µg/mL) | 0.4 (≈ 0.186 µg/mL) | ≤0.1 | 3.1 (≈ 1.44 µg/mL) | 1.6 (≈ 0.743 µg/mL) | 0.4 (≈ 0.186 µg/mL) | 1.6 (≈ 0.743 µg/mL) | ≤0.1 |
| CCCNCc1ccc(C#Cc2ccc(C(=O)NC(C(=O)NC)C(=O)NO)cc2)cc1 (centres unmarked) [Compound 10] | 12.5 (≈ 5.28 µg/mL) | 0.8 (≈ 0.338 µg/mL) | 1.6 (≈ 0.676 µg/mL) | 1.6 (≈ 0.676 µg/mL) | 0.2 (≈ 0.0845 µg/mL) | 3.1 (≈ 1.31 µg/mL) | 6.3 (≈ 2.66 µg/mL) | 0.8 (≈ 0.338 µg/mL) | 3.1 (≈ 1.31 µg/mL) | 0.8 (≈ 0.338 µg/mL) |
| CNC(=O)C(NC(=O)c1ccc(C#Cc2ccc(CNCc3ccnc(Cl)c3)cc2)cc1)C(=O)NO (centres unmarked) [Compound 12] | 0.8 (≈ 0.405 µg/mL) | ≤0.1 | 0.4 (≈ 0.202 µg/mL) | ≤0.1 | ≤0.1 | 0.4 (≈ 0.202 µg/mL) | 0.4 (≈ 0.202 µg/mL) | ≤0.1 | 0.2 (≈ 0.101 µg/mL) | ≤0.1 |
| CNC(=O)C(C(=O)NO)N(C)C(=O)c1ccc(C#Cc2ccc(CNCc3ccccn3)cc2)cc1 (centres unmarked) [Compound 28] | 12.5 (≈ 6.07 µg/mL) | 1.6 (≈ 0.777 µg/mL) | 6.3 (≈ 3.06 µg/mL) | 1.6 (≈ 0.777 µg/mL) | 0.2 (≈ 0.0971 µg/mL) | 3.1 (≈ 1.51 µg/mL) | 3.1 (≈ 1.51 µg/mL) | 3.1 (≈ 1.51 µg/mL) | 6.3 (≈ 3.06 µg/mL) | ≤0.1 |
| CNC(=O)C(NC(=O)c1ccc(C#Cc2ccc(CN3CCCC3)cc2)cc1)C(=O)NO (centres unmarked) [Compound 7] | 12.5 (≈ 5.43 µg/mL) | 0.8 (≈ 0.348 µg/mL) | 6.3 (≈ 2.74 µg/mL) | 1.6 (≈ 0.695 µg/mL) | 0.2 (≈ 0.0869 µg/mL) | 12.5 (≈ 5.43 µg/mL) | 12.5 (≈ 5.43 µg/mL) | 0.4 (≈ 0.174 µg/mL) | 3.1 (≈ 1.35 µg/mL) | ≤0.1 |
| CNC(=O)C(C(=O)NO)N(C)C(=O)c1ccc(C#Cc2ccc(CNCc3ccccc3)cc2)cc1 (centres unmarked) [Compound 23] | 3.1 (≈ 1.5 µg/mL) | 0.8 (≈ 0.388 µg/mL) | 1.6 (≈ 0.775 µg/mL) | 0.4 (≈ 0.194 µg/mL) | ≤0.1 | 1.6 (≈ 0.775 µg/mL) | 0.8 (≈ 0.388 µg/mL) | 1.6 (≈ 0.775 µg/mL) | 1.6 (≈ 0.775 µg/mL) | 0.4 (≈ 0.194 µg/mL) |
| CNC(=O)C(NC(=O)c1ccc(C#Cc2ccc(CNCc3ccccc3)cc2)cc1)C(=O)NO (centres unmarked) [Compound 5] | 1.6 (≈ 0.753 µg/mL) | ≤0.1 | 1.6 (≈ 0.753 µg/mL) | ≤0.1 | ≤0.1 | 0.8 (≈ 0.376 µg/mL) | 0.8 (≈ 0.376 µg/mL) | 0.2 (≈ 0.0941 µg/mL) | 0.4 (≈ 0.188 µg/mL) | ≤0.1 |
| CNC(=O)C(C(=O)NO)N(C)C(=O)c1ccc(C#Cc2ccc(CNCCOC)cc2)cc1 (centres unmarked) [Compound 21] | 12.5 (≈ 5.66 µg/mL) | 1.6 (≈ 0.724 µg/mL) | 12.5 (≈ 5.66 µg/mL) | 1.6 (≈ 0.724 µg/mL) | 0.4 (≈ 0.181 µg/mL) | 3.1 (≈ 1.4 µg/mL) | 6.3 (≈ 2.85 µg/mL) | 3.1 (≈ 1.4 µg/mL) | 3.1 (≈ 1.4 µg/mL) | 1.6 (≈ 0.724 µg/mL) |
| CNC(=O)C(NC(=O)c1ccc(C#Cc2ccc(CNC3CCC3)cc2)cc1)C(=O)NO (centres unmarked) [Compound 8] | 12.5 (≈ 5.43 µg/mL) | 0.4 (≈ 0.174 µg/mL) | 6.3 (≈ 2.74 µg/mL) | 1.6 (≈ 0.695 µg/mL) | ≤0.1 | 6.3 (≈ 2.74 µg/mL) | 6.3 (≈ 2.74 µg/mL) | 0.4 (≈ 0.174 µg/mL) | 3.1 (≈ 1.35 µg/mL) | ≤0.1 |
| CCCNCc1ccc(C#Cc2ccc(C(=O)N(C)C(C(=O)NC)C(=O)NO)cc2)cc1 (centres unmarked) [Compound 27] | 12.5 (≈ 5.46 µg/mL) | 1.6 (≈ 0.698 µg/mL) | 12.5 (≈ 5.46 µg/mL) | 1.6 (≈ 0.698 µg/mL) | 0.4 (≈ 0.175 µg/mL) | 6.3 (≈ 2.75 µg/mL) | 6.3 (≈ 2.75 µg/mL) | 3.1 (≈ 1.35 µg/mL) | 6.3 (≈ 2.75 µg/mL) | 0.2 (≈ 0.0873 µg/mL) |
| CNC(=O)C(NC(=O)c1ccc(C#Cc2ccc(CNCc3cccs3)cc2)cc1)C(=O)NO (centres unmarked) [Compound 15] | 0.8 (≈ 0.381 µg/mL) | ≤0.1 | 0.2 (≈ 0.0953 µg/mL) | ≤0.1 | ≤0.1 | 0.2 (≈ 0.0953 µg/mL) | 0.2 (≈ 0.0953 µg/mL) | ≤0.1 | 0.2 (≈ 0.0953 µg/mL) | ≤0.1 |
| CNC(=O)C(NC(=O)c1ccc(C#Cc2ccc(CNCCOC)cc2)cc1)C(=O)NO (centres unmarked) [Compound 3] | 6.3 (≈ 2.76 µg/mL) | 0.4 (≈ 0.175 µg/mL) | 1.6 (≈ 0.702 µg/mL) | 0.8 (≈ 0.351 µg/mL) | ≤0.1 | 1.6 (≈ 0.702 µg/mL) | 3.1 (≈ 1.36 µg/mL) | 0.4 (≈ 0.175 µg/mL) | 1.6 (≈ 0.702 µg/mL) | 0.2 (≈ 0.0877 µg/mL) |
| CNC(=O)C(C(=O)NO)N(C)C(=O)c1ccc(C#Cc2ccc(CNCc3ccc(OC)cc3)cc2)cc1 (centres unmarked) [Compound 24] | 12.5 (≈ 6.43 µg/mL) | 1.6 (≈ 0.823 µg/mL) | 6.3 (≈ 3.24 µg/mL) | 0.8 (≈ 0.412 µg/mL) | ≤0.1 | 3.1 (≈ 1.6 µg/mL) | 1.6 (≈ 0.823 µg/mL) | 1.6 (≈ 0.823 µg/mL) | 1.6 (≈ 0.823 µg/mL) | 0.4 (≈ 0.206 µg/mL) |
| CNC(=O)C(NC(=O)c1ccc(C#Cc2ccc(CNCC(F)(F)F)cc2)cc1)C(=O)NO (centres unmarked) [Compound 19] | 0.8 (≈ 0.37 µg/mL) | ≤0.1 | 0.2 (≈ 0.0925 µg/mL) | ≤0.1 | ≤0.1 | 0.2 (≈ 0.0925 µg/mL) | 0.4 (≈ 0.185 µg/mL) | ≤0.1 | 0.2 (≈ 0.0925 µg/mL) | ≤0.1 |
| C#CCNCc1ccc(C#Cc2ccc(C(=O)N(C)C(C(=O)NC)C(=O)NO)cc2)cc1 (centres unmarked) [Compound 30] | 3.1 (≈ 1.34 µg/mL) | 0.8 (≈ 0.346 µg/mL) | 1.6 (≈ 0.692 µg/mL) | 0.4 (≈ 0.173 µg/mL) | ≤0.1 | 1.6 (≈ 0.692 µg/mL) | 0.8 (≈ 0.346 µg/mL) | 1.6 (≈ 0.692 µg/mL) | 0.8 (≈ 0.346 µg/mL) | 0.4 (≈ 0.173 µg/mL) |
| CNC(=O)C(NC(=O)c1ccc(C#Cc2ccc(CNCc3ccco3)cc2)cc1)C(=O)NO (centres unmarked) [Compound 14] | 0.4 (≈ 0.184 µg/mL) | ≤0.1 | 0.8 (≈ 0.368 µg/mL) | 0.2 (≈ 0.0921 µg/mL) | ≤0.1 | 0.4 (≈ 0.184 µg/mL) | 0.4 (≈ 0.184 µg/mL) | ≤0.1 | 0.4 (≈ 0.184 µg/mL) | ≤0.1 |
| CNC(=O)C(NC(=O)c1ccc(C#Cc2ccc(CNCc3nccs3)cc2)cc1)C(=O)NO (centres unmarked) [Compound 18] | 0.8 (≈ 0.382 µg/mL) | ≤0.1 | 0.4 (≈ 0.191 µg/mL) | 0.2 (≈ 0.0955 µg/mL) | ≤0.1 | 0.4 (≈ 0.191 µg/mL) | 0.4 (≈ 0.191 µg/mL) | ≤0.1 | 0.4 (≈ 0.191 µg/mL) | ≤0.1 |
| CNC(=O)C(NC(=O)c1ccc(C#Cc2ccc(CNC3CCCC3)cc2)cc1)C(=O)NO (centres unmarked) [Compound 9] | 25 (≈ 11.2 µg/mL) | 0.4 (≈ 0.179 µg/mL) | 12.5 (≈ 5.61 µg/mL) | 3.1 (≈ 1.39 µg/mL) | 0.2 (≈ 0.0897 µg/mL) | 12.5 (≈ 5.61 µg/mL) | 25 (≈ 11.2 µg/mL) | 0.4 (≈ 0.179 µg/mL) | 6.3 (≈ 2.83 µg/mL) | 0.4 (≈ 0.179 µg/mL) |
